Measured values reported in patent US6822146B2, “Sulfonylurea-tolerant sunflower line M7” (priority 2000, dated 2004).
Where two headings read alike, the source gives them in different places.

Legend:
H89A × M4M11 = type: in vivo, sunflower; conditions: variety G
How it was run: (§1)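 Fourth-generation self-pollinated maintainer mutant lines were chemically sterilized with a small amount of gibberellic acid at the bud "star" flower stage, making them act as CMS females. Herbicide resistance came from the female side. Field phytotoxicity was scored in %, with 0% meaning no crop injury.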

H89A × M4M12 = type: in vivo, sunflower; conditions: variety F
H89A × M4M7 = type: in vivo, sunflower; conditions: variety H
[1] = test system: Hybrid control: H89A × RHA274; type: in vivo, sunflower; conditions: variety A
How it was run: as §1

[2] = test system: Inbred line control: H89A; type: in vivo, sunflower; conditions: variety B
How it was run: as §1

GA-M4M12 × RHA274 = experiment: Test A field trial, phytotoxicity, variety C; type: in vivo, sunflower
Excerpt: (§2) To generate the hybrids C, D and E, the fourth generation self-pollinated maintainer mutant lines M4M12, M4M11 and M4M7 were chemically sterilized by applying at the bud “star” flower stage a small amount of gibberellic acid solution to sterilize the pollen according to the general method described in Sunflower Science Technology, J. F. Carter ed. (Number 19 in the series “Agronomy”) pp. 339-386. This treatment enables maintainer plants to behave as CMS inbred lines and allows the production of heterozygous resistant hybrids, with the herbicide resistant source coming from the female side. Such crosses allowed evaluating the sexual effect of the mutation source when introduced on the female side of a cross as described in crosses C, D and E versus the male side of a cross as described in crosses F, G and H. Labels I, J and K identify third generation CMS mutant lines crossed with fourth generation maintainer lines to maintain the highly heritable mutant trait in a male sterile homozygous resistant environment. One skilled in sunflower breeding art understands the meaning of such crosses.
(§3) A rating of 0% phytotoxicity means no crop injury.

GA-M4M11 × RHA274 = experiment: Test A field trial, phytotoxicity, variety D; type: in vivo, sunflower
Excerpt: as §2, §3

GA-M4M7 × RHA274 = experiment: Test A field trial, phytotoxicity, variety E; type: in vivo, sunflower
Excerpt: as §2, §3

BC3-M4M12 = experiment: Test A field trial, phytotoxicity, variety I; type: in vivo, sunflower
Excerpt: as §2, §3

BC3-M4M11 = experiment: Test A field trial, phytotoxicity, variety J; type: in vivo, sunflower
Excerpt: as §2, §3

BC3-M4M7 = experiment: Test A field trial, phytotoxicity, variety K; type: in vivo, sunflower
Excerpt: as §2, §3

Orobanche cumana = experiment: Test E control of Orobanche cumana in resistant sunflower hybrid; type: in vivo; conditions: for relative efficacy in controlling Orobanche: Test E rates, metsulfuron-methyl compared with tribenuron-methyl
Protocol: The effect of the various treatments was evaluated 35 days after sowing. The sunflower roots were cleaned by washing in water, and the presence of Orobanche nodules was determined visually and by weighing root wet mass in comparison to check plants free of Orobanche infestation. […] The nodules caused by Orobanche increased root weight, and a correlation (r=0.7) was found between visual scores and weight measurements. Thus the weighing technique could be used to corroborate visual efficacy scorings. Orobanche emergence was also scored but found to be less useful to evaluate treatment efficiency at the evaluation timing of this test.
Based on the results from Test D, a modified protocol was developed to include three timings of post-emergence treatment. The hybrid BC4-M5M12 (female parent)×PHA155 restorer line (male parent) described in Test C was used in this test. Various herbicide programs were tested using three replications. […] Seed coatings of these formulated herbicides were applied to 6 kg of seeds in such amount that considering the distribution of the coated seeds in each pot, the herbicide active ingredient (a.i.) application rates per hectare were as indicated.
The treatments were applied similar to the methods described for Test D. Pre-emergence applications were broadcast only, not soil incorporated. For pre-emergence application, the pots were sprayed using the high rates of the herbicides two days after sowing the sunflower seeds. Post-emergence treatments were applied at the 4-6 leaf stage of sunflower (corresponding to early stage of Orobanche attachment; identified as “T1”), the 6-8 leaf stage of sunflower (corresponding to the mid stage of Orobanche attachment; nodules <5 mm diameter; identified as “T2”) and 8-12 leaf stage of sunflower (corresponding to late stage of Orobanche attachment; identified as “T3”). The mid-stage applications included the high as well as low application rates of each herbicide.
For comparison were also included in this test other acetolactate synthase-inhibiting herbicides reported in the literature as giving good weed control of Orobanche (L. García-Torres et al., Weed Research 1994, 34, 395-402; L. García-Torres et al., Weed Technology 1995, 9, 819-824; J. Hershenhorn et al., Weed Technology 1998, 12, 108-114).

[3] = test system: H89A × RHA274 (sulfonylurea-susceptible hybrid); experiment: Test G control of volunteer sunflower, H89A × RHA274; type: in vivo; conditions: rated 4 weeks after application, scale 0-100
BC2-M3M11 = experiment: Test G control of volunteer sunflower, BC2-M3M11; type: in vivo; conditions: rated 4 weeks after application, scale 0-100
BC2-M3M12 = experiment: Test G control of volunteer sunflower, BC2-M3M12; type: in vivo; conditions: rated 4 weeks after application, scale 0-100
[4] = test system: mutants originating from M11 and M12; conditions: tribenuron-methyl up to 60 g a.i./ha; others at Test G rates
Excerpt: This test involved sulfonylurea-resistant sunflower progeny BC2-M3M11 and BC2-M3M12, derived from M11 and M12, respectively. Also, a sulfonylurea-susceptible hybrid, H89A×RHA274, was included for comparison. Plants were sprayed with formulated herbicides at the 4-leaf stage. The efficacy of the treatments on the sunflowers was visually rated 4 weeks after application, using a scale where 0 means no control of the sunflowers, 85 means sufficient efficacy level to stop plants from flowering and propagating, and 100 means a complete destruction of the mutants.
Weed control in sugar beet requires 2-3 herbicide applications per season to efficiently control weeds in this slow growing crop.

[5] = 6 g a.i./ha post-emergence, without Citowet

COC(=O)c1ccccc1S(=O)(=O)NC(=O)Nc1nc(C)nc(OC)n1 [Metsulfuron-methyl, metsulfuron-methyl]
Maximum Phytotoxicity (H89A × M4M11; [5]): 6%
Maximum Phytotoxicity (H89A × M4M12; [5]): 4%
Maximum Phytotoxicity (H89A × M4M7; [5]): 4%
Maximum Phytotoxicity [1, 5]: 100%
Maximum Phytotoxicity [2, 5]: 100%
Maximum Phytotoxicity (GA-M4M12 × RHA274; in vivo): 8%
Maximum Phytotoxicity (GA-M4M11 × RHA274; in vivo): 7%
Maximum Phytotoxicity (GA-M4M7 × RHA274; in vivo): 0%
Maximum Phytotoxicity (BC3-M4M12; in vivo): 7%
Maximum Phytotoxicity (BC3-M4M11; in vivo): 11%
Maximum Phytotoxicity (BC3-M4M7; in vivo): 8%
relative efficacy in controlling Orobanche (Orobanche cumana): more efficacious in controlling Orobanche
Control (Orobanche cumana; post-emergence 3 + 3 g a.i./ha at T1 + T3): 96%
Control (Orobanche cumana; post-emergence 3 + 3 g a.i./ha at T1 + T3, listed as metsulfuron-methyl): excellent level of Orobanche control
Control (Orobanche cumana; post-emergence 6 g a.i./ha at T2): 97%
Control (Orobanche cumana; pre-emergence 3 + post-emergence 3 g a.i./ha at T2): 87%
Control (Orobanche cumana; pre-emergence 6 g a.i./ha (r19)): 30%
Efficacy on H89A × RHA274 ([3]; 4 g a.i./ha): 100
Efficacy on BC2-M3M11 (BC2-M3M11; 4 g a.i./ha): 8
Efficacy on BC2-M3M12 (BC2-M3M12; 4 g a.i./ha): 18
resistance/tolerance of the mutants [4]: to a lesser extent than with tribenuron-methyl

COC(=O)c1ccccc1S(=O)(=O)NC(=O)N(C)c1nc(C)nc(OC)n1 [Tribenuron-methyl, tribenuron-methyl]
Maximum Phytotoxicity (H89A × M4M11; 22.5 g a.i./ha post-emergence): 3%
Maximum Phytotoxicity (H89A × M4M12; 22.5 g a.i./ha post-emergence): 0%
Maximum Phytotoxicity (H89A × M4M7; 22.5 g a.i./ha post-emergence): 0%
Maximum Phytotoxicity ([1]; 22.5 g a.i./ha post-emergence): 100%
Maximum Phytotoxicity ([2]; 22.5 g a.i./ha post-emergence): 100%
Maximum Phytotoxicity (GA-M4M12 × RHA274; in vivo): 0%
Maximum Phytotoxicity (GA-M4M11 × RHA274; in vivo): 6%
Maximum Phytotoxicity (GA-M4M7 × RHA274; in vivo): 2%
Maximum Phytotoxicity (BC3-M4M12; in vivo): 4%
Maximum Phytotoxicity (BC3-M4M11; in vivo): 0%
Maximum Phytotoxicity (BC3-M4M7; in vivo): 4%
Control (Orobanche cumana; 22.5 g a.i./ha printed in pre-emergence column (first such row, r7), host BC4-M5M12 × PHA155): 70%
Control (Orobanche cumana; post-emergence 11.25 + 11.25 g a.i./ha at T1 + T3): 90%
Control (Orobanche cumana; post-emergence 22.5 g a.i./ha at T2): 75%
Control (Orobanche cumana; pre-emergence 11.25 + post-emergence 11.25 g a.i./ha at T2): 78%
Control (Orobanche cumana; pre-emergence 22.5 g a.i./ha (r18)): 0%
Control (Orobanche cumana; seed coating 11.25 + post-emergence 11.25 g a.i./ha at T2): 88%
Efficacy on H89A × RHA274 ([3]; 10 g a.i./ha, 4-leaf stage): 100
Efficacy on H89A × RHA274 ([3]; 20 g a.i./ha): 100
Efficacy on H89A × RHA274 ([3]; 40 g a.i./ha): 100
Efficacy on H89A × RHA274 ([3]; 60 g a.i./ha): 100
Efficacy on BC2-M3M11 (BC2-M3M11; 10 g a.i./ha): 0
Efficacy on BC2-M3M11 (BC2-M3M11; 20 g a.i./ha): 0
Efficacy on BC2-M3M11 (BC2-M3M11; 40 g a.i./ha): 3
Efficacy on BC2-M3M11 (BC2-M3M11; 60 g a.i./ha): 10
Efficacy on BC2-M3M12 (BC2-M3M12; 10 g a.i./ha): 0
Efficacy on BC2-M3M12 (BC2-M3M12; 20 g a.i./ha): 0
Efficacy on BC2-M3M12 (BC2-M3M12; 40 g a.i./ha): 0
Efficacy on BC2-M3M12 (BC2-M3M12; 60 g a.i./ha): 14
resistance/tolerance of the mutants [4]: excellent to very good level of resistance

COC(=O)c1cccc(C)c1S(=O)(=O)NC(=O)Nc1nc(OCC(F)(F)F)nc(N(C)C)n1 [Triflusulfuron-methyl, triflusulfuron-methyl]
Maximum Phytotoxicity (H89A × M4M11; 20 g a.i./ha post-emergence): 15%
Maximum Phytotoxicity (H89A × M4M11; 40 g a.i./ha post-emergence): 36%
Maximum Phytotoxicity (H89A × M4M12; 20 g a.i./ha post-emergence): 16%
Maximum Phytotoxicity (H89A × M4M12; 40 g a.i./ha post-emergence): 33%
Maximum Phytotoxicity (H89A × M4M7; 20 g a.i./ha post-emergence): 10%
Maximum Phytotoxicity (H89A × M4M7; 40 g a.i./ha post-emergence): 33%
Maximum Phytotoxicity ([1]; 20 g a.i./ha post-emergence): 100%
Maximum Phytotoxicity ([1]; 40 g a.i./ha post-emergence): 100%
Maximum Phytotoxicity ([2]; 20 g a.i./ha post-emergence): 100%
Maximum Phytotoxicity ([2]; 40 g a.i./ha post-emergence): 100%
Maximum Phytotoxicity (GA-M4M12 × RHA274; variety C, 20 g a.i./ha post-emergence): 19%
Maximum Phytotoxicity (GA-M4M12 × RHA274; variety C, 40 g a.i./ha post-emergence): 38%
Maximum Phytotoxicity (GA-M4M11 × RHA274; variety D, 20 g a.i./ha post-emergence): 19%
Maximum Phytotoxicity (GA-M4M11 × RHA274; variety D, 40 g a.i./ha post-emergence): 40%
Maximum Phytotoxicity (GA-M4M7 × RHA274; variety E, 20 g a.i./ha post-emergence): 20%
Maximum Phytotoxicity (GA-M4M7 × RHA274; variety E, 40 g a.i./ha post-emergence): 38%
Maximum Phytotoxicity (BC3-M4M12; variety I, 20 g a.i./ha post-emergence): 4%
Maximum Phytotoxicity (BC3-M4M12; variety I, 40 g a.i./ha post-emergence): 13%
Maximum Phytotoxicity (BC3-M4M11; variety J, 20 g a.i./ha post-emergence): 6%
Maximum Phytotoxicity (BC3-M4M11; variety J, 40 g a.i./ha post-emergence): 14%
Maximum Phytotoxicity (BC3-M4M7; variety K, 20 g a.i./ha post-emergence): 8%
Maximum Phytotoxicity (BC3-M4M7; variety K, 40 g a.i./ha post-emergence): 10%
relative efficacy in controlling Orobanche (Orobanche cumana): less efficacious in controlling Orobanche
Control (Orobanche cumana; post-emergence 18.75 g a.i./ha at T2): 75%
Efficacy on H89A × RHA274 ([3]; 15 g a.i./ha): 82
Efficacy on BC2-M3M11 (BC2-M3M11; 15 g a.i./ha): 13
Efficacy on BC2-M3M12 (BC2-M3M12; 15 g a.i./ha): 8
resistance/tolerance of the mutants [4]: to a lesser extent than with tribenuron-methyl
